{"source": "paper PMC9081825", "about": "(2022)", "assay_in_all_cases": "QD fluorescence recovery on release from amSWCNT", "key": {"[1]": {"test_system": "A08min-QDs (multi-QD mixture, nanocomplex 1) (DNA, aptamer) GGCAGTGTGGGCGAATCTATGCGTACCGTTCGATATCGTG", "conditions": "137 mM NaCl, 2.7 mM KCl; phosphate buffer pH 7.4; tested at 1.5 μM; 530 nm"}, "[2]": {"test_system": "1.12.2-RQD (nanocomplexes 4 and 5) (DNA, aptamer) GATCGGGTGTGGGTGGCGTAAAGGGAGCATCGGACA", "conditions": "120 mM NaCl, 5 mM KCl, 10 mM CaCl2, 10 mM HEPES pH 7.0 (buffer listed for 1.12.2 in supplement)"}, "[3]": {"test_system": "A08min-GQD (nanocomplex 3) (DNA, aptamer) GGCAGTGTGGGCGAATCTATGCGTACCGTTCGATATCGTG", "conditions": "137 mM NaCl, 2.7 mM KCl; phosphate buffer pH 7.4; OTA 0-1.2 μM; 525 nm; 0.12 mg/mL amSWCNT"}, "[4]": {"test_system": "A08min-RQD (nanocomplex 4) (DNA, aptamer) GGCAGTGTGGGCGAATCTATGCGTACCGTTCGATATCGTG", "conditions": "137 mM NaCl, 2.7 mM KCl; phosphate buffer pH 7.4; OTA 0-1.2 μM; 650 nm; 0.12 mg/mL amSWCNT"}, "[5]": {"test_system": "1.12.2-GQD (nanocomplex 3) (DNA, aptamer) GATCGGGTGTGGGTGGCGTAAAGGGAGCATCGGACA", "conditions": "120 mM NaCl, 5 mM KCl, 10 mM CaCl2, 10 mM HEPES pH 7.0 (buffer listed for 1.12.2 in supplement)"}}, "data": [{"smiles": "CC(=O)CC(c1ccccc1)c1c(O)c2ccccc2oc1=O", "note": "(centres unmarked)", "values": [{"measurement": "binding", "setting": "[1]", "result": "no"}]}, {"smiles": "CCCC[C@@H](C)[C@@H](OC(=O)C[C@@H](CC(=O)O)C(=O)O)[C@H](C[C@@H](C)C[C@H](O)CCCC[C@@H](O)C[C@H](O)[C@H](C)N)OC(=O)C[C@@H](CC(=O)O)C(=O)O", "values": [{"measurement": "binding", "setting": "[1]", "result": "no"}]}, {"smiles": "C[C@@H]1Cc2c(Cl)cc(C(=O)N[C@@H](Cc3ccccc3)C(=O)O)c(O)c2C(=O)O1", "values": [{"measurement": "binding", "setting": "[2]", "result": "yes"}, {"measurement": "binding", "setting": "[3]", "result": "yes"}, {"measurement": "binding", "setting": "[4]", "result": "yes"}, {"measurement": "binding", "setting": "[5]", "result": "yes"}]}, {"smiles": "C[C@@H]1Cc2ccc(C(=O)N[C@@H](Cc3ccccc3)C(=O)O)c(O)c2C(=O)O1", "values": [{"measurement": "binding", "setting": "[1]", "result": "no"}]}, {"smiles": "O=C1C=C2C(=CCOC2O)O1", "note": "(centres unmarked)", "values": [{"measurement": "binding", "setting": "[1]", "result": "no"}]}]}
